Test results as given in patent US20060234985A1, “Combination therapy comprising a bisphosphonate and a hmg-coa reductase inhibitor” (priority 2002, published 2006).

Experiments:
myeloma cell line LP-1 = test: tetrazolium reduction (Promega MTS) assay with isobologram analysis, LP-1; format: cell-based, human
Experimental: (§1) We investigated the cytotoxic effect of the HMG-CoA reductase inhibitor fluvastatin on the human multiple myeloma cell lines LP-1, OPM-2, U266, NCI-H929 and RPMI-8226 in vitro using a tetrazolium reduction assay. After 3 days culture in the presence of 0 to 50 μM fluvastatin, the Promega MTS assay reagent was used to determine the level of inhibition of cell proliferation and/or cell death.
Using the same assay we investigated whether the activity of fluvastatin against multiple myeloma in vitro could be enhanced by the addition of the bisphosphonate Zometa® (zoledronic acid). Using 80% cell inhibition as an end point, isobolograms were constructed to visualize the interaction between fluvastatin and Zometa®.

OPM-2 = test: tetrazolium reduction (Promega MTS) assay, OPM-2; format: cell-based, human; details: 3 days culture
Experimental: as §1

[1] = system: human multiple myeloma cell lines LP-1, OPM-2, U266, NCI-H929 and RPMI-8226; test: tetrazolium reduction (Promega MTS) assay of cell proliferation and/or cell death, myeloma cell line panel; format: cell-based; details: 3 days culture, p<0.05 by paired Student's t-test
Experimental: as §1
Using the same assay we investigated whether the activity of fluvastatin against multiple myeloma in vitro could be enhanced by the addition of the bisphosphonate Zometa® (zoledronic acid). Using 80% cell inhibition as an end point, isobolograms were constructed to visualize the interaction between fluvastatin and Zometa®. […] To illustrate this point, >50 μM fluvastatin or […] Zometa® alone was required to induce 80% cell death in the myeloma cell line LP-1 but the combination of 25 μM fluvastatin and 0.21 μM Zometa® had the same effect.

U266 = test: tetrazolium reduction (Promega MTS) assay, U266; format: cell-based, human; details: 3 days culture
Experimental: as §1

SMILES	concentration required to induce 80% cell death (myeloma cell line LP-1; Zometa alone)	inhibition at 50 μM (OPM-2)	inhibition of proliferation ([1]; 25 μM and 50 μM, all cell lines)	fluvastatin concentration as low as which significantly inhibited proliferation ([1]; all cell lines except RPMI-8226)	concentration required to induce 80% cell death (myeloma cell line LP-1; fluvastatin alone)	inhibition at 50 μM (U266)
O=P(O)(O)C(O)(Cn1ccnc1)P(=O)(O)O [Zometa®, 2-(imidazol-1yl)-1-hydroxyethane-1,1-diphosphonic acid]	> 100 µM	–	–	–	–	–
CC(C)n1c(/C=C/C(O)CC(O)CC(=O)O)c(-c2ccc(F)cc2)c2ccccc21 (stereo not drawn) [fluvastatin]	–	> 90%	significantly inhibited proliferation	2.5 µM	> 50 µM	45%
